In data set [1] the test system is Mycobacterium tuberculosis H37Rv. As to the kind of experiment: Microplate Alamar Blue assay. The following applies: for MIC: Mycobacterium tuberculosis, H37RV, 120 h, read-out: M. tuberculosis MIC, H37Rv, microplate Alamar Blue assay; for times more active than Pyrazinamide (MIC) / times more active than streptomycin (MIC): M. tuberculosis H37Rv. The format is cell-based.

The next data set in a line: in vitro. The following applies: mouse.
Data set [2] concerns mouse embryonic fibroblasts cell line (NIH 3T3). The conditions noted are these: SI = IC50 (NIH 3T3) / MIC (M. tuberculosis H37Rv).
In a further data set the test system is B. substilis. The data set is described as follows: MIC by two-fold serial dilution. Format: cell-based, Bacillus subtilis.

≈ marks a conversion by molar mass, not a printed value.

Results on twelve compounds are retold here after publication PMC3697191 (Journal of Pharmacy & Bioallied Sciences, 2013).

The term MIC denotes the lowest concentration that inhibits growth of the organism. Take `NC(=O)c1cnccn1` [Pyrazinamide, reference compound]: the MIC in data set [1] was 25.4 µM (≈ 3.12 µg/mL).

Regarding `[H]/N=C(/N)N[C@H]1[C@H](O)[C@@H](O)[C@H](O[C@@H]2O[C@@H](C)[C@](O)(C=O)[C@H]2O[C@@H]2O[C@@H](CO)[C@H](O)[C@@H](O)[C@@H]2NC)[C@@H](N/C(N)=N\[H])[C@@H]1O` [Streptomycin, reference compound], in data set [1], the MIC was 11 µM (≈ 6.4 µg/mL).

Usually IC50 stands for the concentration that inhibits the measured activity by half. Read a high IC50 as a need for much substance. In “in vitro”, `O=C1C(=NNc2nc(-c3ccccc3)cs2)C(N=Cc2ccccc2Cl)=NN1c1ccccc1` [TZP4b, 3-[[(2-chlorophenyl)methylidene]amino]-1-phenyl-4-[2-(4-phenyl-1,3-thiazol-2-yl) hydrazin-1-ylidene]-4,5-dihydro-1H-pyrazol-5-one] had an IC50 of 990 µM.

In data set [2], `O=C1C(=NNc2nc(-c3ccccc3)cs2)C(N=Cc2cccc(Cl)c2)=NN1c1ccccc1` [TZP4c, 3-[[(3-chlorophenyl)methylidene]amino]-1-phenyl-4-[2-(4-phenyl-1,3-thiazol-2-yl) hydrazin-1-ylidene]-4,5-dihydro-1H-pyrazol-5-one] registered a Selectivity index of 82.85. Further, in the data set “in vitro”, the IC50 was above 1000 µM.

`O=C1C(=NNc2nc(-c3ccccc3)cs2)C(N=Cc2ccc(Cl)cc2)=NN1c1ccccc1` [TZP4d, 3-[[(4-chlorophenyl)methylidene]amino]-1-phenyl-4-[2-(4-phenyl-1,3-thiazol-2-yl) hydrazin-1-ylidene]-4,5-dihydro-1H-pyrazol-5-one] gave a Selectivity index in data set [2] of 22.37. In “in vitro”, this compound came in with an IC50 above 1000 µM.

Turning to `O=C1C(=NNc2nc(-c3ccccc3)cs2)C(N=Cc2ccccc2O)=NN1c1ccccc1` [TZP4f, 3-[[(2-hydroxyphenyl)methylidene]amino]-1-phenyl-4-[2-(4-phenyl-1,3-thiazol-2-yl) hydrazin-1-ylidene]-4,5-dihydro-1H-pyrazol-5-one], the Selectivity index in data set [2] came out at 24.44. The MIC in data set [1] worked out at 53.6 µM (≈ 25 µg/mL).

As for `O=C1C(=NNc2nc(-c3ccccc3)cs2)C(N=Cc2ccc(O)cc2O)=NN1c1ccccc1` [TZP4g, 3-[[(2,4-dihydroxyphenyl)methylidene]amino]-1-phenyl-4-[2-(4-phenyl-1,3-thiazol-2-yl) hydrazin-1-ylidene]-4,5-dihydro-1H-pyrazol-5-one], the Selectivity index in data set [2] was 168.88. This compound also displayed an IC50 in “in vitro” above 1000 µM. For the same compound, in data set [1], the “times more active than Pyrazinamide (MIC)” value stood at 1.69, the “times more active than streptomycin (MIC)” value was 3.91 and the MIC was 12.9 µM (≈ 6.25 µg/mL). In addition, the “times more active than Ciprofloxacin (MIC)” value with B. substilis was 1.45.

In turn, `O=C1C(=NNc2nc(-c3ccccc3)cs2)C(N=Cc2ccc(O)c(O)c2)=NN1c1ccccc1` [TZP4h, 3-[[(3,4-dihydroxyphenyl)methylidene]amino]-1-phenyl-4-[2-(4-phenyl-1,3-thiazol-2-yl) hydrazin-1-ylidene]-4,5-dihydro-1H-pyrazol-5-one] came in with a Selectivity index in data set [2] of 199.07. In data set [1], the “times more active than Pyrazinamide (MIC)” value is recorded as 3.9, the “times more active than streptomycin (MIC)” value turned out to be 1.69 and the MIC turned out to be 6.48 µM (≈ 3.13 µg/mL). In addition, the “times more active than Ciprofloxacin (MIC)” value in the data set on B. substilis is 1.45.

`COc1cccc(C=NC2=NN(c3ccccc3)C(=O)C2=NNc2nc(-c3ccccc3)cs2)c1` [TZP4i, 3-[[(3-methoxyphenyl)methylidene]amino]-1-phenyl-4-[2-(4-phenyl-1,3-thiazol-2-yl) hydrazin-1-ylidene]-4,5-dihydro-1H-pyrazol-5-one]: in data set [1], the minimal inhibitory concentration (MIC) was 26 µM (≈ 12.5 µg/mL).

As to `COc1cc(C=NC2=NN(c3ccccc3)C(=O)C2=NNc2nc(-c3ccccc3)cs2)ccc1O` [TZP4j, 3-[[(4-hydroxy-3-methoxyphenyl)methylidene]amino]-1-phenyl-4-[2-(4-phenyl-1,3-thiazol-2-yl) hydrazin-1-ylidene]-4,5-dihydro-1H-pyrazol-5-one], the MIC in data set [1] came to 25.2 µM (≈ 12.5 µg/mL). Besides, the “times more active than Ciprofloxacin (MIC)” value in the data set with B. substilis amounted to 2.99.

Take `CN(C)c1ccc(C=NC2=NN(c3ccccc3)C(=O)C2=NNc2nc(-c3ccccc3)cs2)cc1` [TZP4k, 3-[{[4-(dimethylamino)phenyl]methylidene}amino]-1-phenyl-4-[2-(4-phenyl-1,3-thiazol-2-yl) hydrazin-1-ylidene]-4,5-dihydro-1H-pyrazol-5-one]: the minimum inhibitory concentration (MIC) in data set [1] was 13 µM (≈ 6.4 µg/mL).

Compound `O=C1C(=NNc2nc(-c3ccccc3)cs2)C(N=Cc2ccc([N+](=O)[O-])cc2)=NN1c1ccccc1` [TZP4l, 3-[[(4-nitrophenyl)methylidene]amino]-1-phenyl-4-[2-(4-phenyl-1,3-thiazol-2-yl) hydrazin-1-ylidene]-4,5-dihydro-1H-pyrazol-5-one] gave a Selectivity index in data set [2] of 20.32. This compound had an IC50 in the data set “in vitro” above 1000 µM.
